Read-outs that look alike come from different tables or passages of the source.
Key:
[1] = Log P by HPLC on reversed phase columns (EEC directive 79/831 Annex V.A8); assay type: physicochemical; details: for chromatographic logP: reversed phase HPLC columns
Description: In the above table, measurement of Log P values was performed according to EEC directive 79/831 Annex V.A8 by HPLC (High Performance Liquid Chromatography) on reversed phase columns with the following methods: • [^a] Log P value is determined by measurement of LC-UV, in an acidic range, with 0.1% formic acid in water and acetonitrile as eluent (linear gradient from 10% acetonitrile to 95% acetonitrile). • [^b] Log P value is determined by measurement of LC-UV, in a neutral range, with 0.001 molar ammonium acetate solution in water and acetonitrile as eluent (linear gradient from 10% acetonitrile to 95% acetonitrile). • [^c] Log P value is determined by measurement of LC-UV, in an acidic range, with 0.1% phosphoric acid and acetonitrile as eluent (linear gradient from 10% acetonitrile to 95% acetonitrile).
If more than one Log P value is available within the same method, all the values are given and separated by “+”.
Calibration was done with straight-chain alkan2-ones (with 3 to 16 carbon atoms) with known Log P values (measurement of Log P values using retention times with linear interpolation between successive alkanones). Lambda-max-values were determined using UV-spectra from 200 nm to 400 nm and the peak values of the chromatographic signals.

[2] = test system: Colletotrichum lindemuthianum; test: Colletotrichum lindemuthianum in vitro cell test; assay type: cell-based; details: 144 h, 20 ppm of active ingredient, 6 days incubation, read-out: efficacy (direct activity, inhibition of fungal growth)
Description: Solvent: DMSO Culture medium: 14.6 g anhydrous D-glucose (VWR), 7.1 g Mycological Peptone (Oxoid), 1.4 g granulated Yeast Extract (Merck), QSP 1 liter Inoculum: spores suspension Fungicides were solubilized in DMSO and the solution used to prepare the required range of concentrations. The final concentration of DMSO used in the assay was ≤1%. A spore suspension of C. lindemuthianum was prepared and diluted to the desired spore density. Fungicides were evaluated for their ability to inhibit spores germination and mycelium growth in liquid culture assay. The compounds were added in the desired concentration to the culture medium with spores. After 6 days incubation, fungi-toxicity of compounds was determined by spectrometric measurement of mycelium growth. Inhibition of fungal growth was determined by comparing the absorbance values in wells containing the fungicides with the absorbance in control wells without fungicides.

Uromyces appendiculatus = test: In vivo preventive test on Uromyces appendiculatus (bean rust); details: Uromyces appendiculatus, 240 h, bean, evaluated 10 days after inoculation, read-out: efficacy; for pest or weed control at 31 ppm: 31 ppm of active ingredient; for pest or weed control at 125 ppm: 125 ppm of active ingredient; for pest or weed control at 500 ppm: 500 ppm of active ingredient
Description: (§1) The tested active ingredients were prepared by homogenization in a mixture of acetone/Dimethyl sulfoxide/Tween®, and then diluted with water to obtain the desired active material concentration.
The young plants of bean were treated by spraying the active ingredient prepared as described above.
Control plants were treated only with an aqueous solution of acetone/Dimethyl sulfoxide/Tween®.
After 72 hours, the plants were contaminated by spraying the leaves with an aqueous suspension of Uromyces appendiculatus spores. The contaminated bean plants were incubated for 24 hours at 20° C. and at 100% relative humidity and then for 9 days at 20° C. and at 70-80% relative humidity.
The test was evaluated 10 days after the inoculation. 0% means an efficacy which corresponds to that of the control plants while an efficacy of 100% means that no disease was observed.
Compound CMP1 was tested in an in vivo preventive test on Uromyces appendiculatus (bean rust) in the same conditions as described in Example G.

Peronospora parasitica = test: In vivo preventive test on Peronospora parasitica (crucifer downy mildew); details: Hyaloperonospora parasitica, 120 h; 125 ppm of active ingredient; cabbage; evaluated 5 days after inoculation; read-out: efficacy
Description: as §1
(§2) The young plants of cabbage were treated by spraying the active ingredient prepared as described above. Control plants were treated only with an aqueous solution of acetone/Dimethyl sulfoxide/Tween®.
After 72 hours, the plants were contaminated by spraying the leaves with an aqueous suspension of Peronospora parasitica spores. The contaminated cabbage plants were incubated for 5 days at 20° C. and at 100% relative humidity.
The test was evaluated 5 days after the inoculation. 0% means an efficacy which corresponds to that of the control plants while an efficacy of 100% means that no disease was observed.

[3] = test system: Xanthomonas campestris pv. campestris; test: Xanthomonas campestris pv. campestris in vitro cell test; assay type: cell-based; details: 20 ppm of active ingredient, 24 h incubation, read-out: efficacy (direct activity, inhibition of bacteria growth)
Description: Solvent: DMSO Culture medium: LB broth medium (Luria Broth Miller) Sigma Inoculum: bacteria suspension Compounds were solubilized in DMSO and the solution used to prepare the required range of concentrations. The final concentration of DMSO used in the assay was ≤1%. Inoculum was prepared from a pre-culture of bacteria grown in liquid medium and diluted to the desired optical density (OD). Compounds were evaluated for their ability to inhibit bacteria growth in liquid culture assay. The compounds were added in the desired concentrations to culture medium containing the bacteria suspension. After 24 h of incubation, the efficacy of compounds was determined by spectrometric measurement of bacteria growth. Inhibition was determined by comparing the absorbance values in wells containing the compounds with the absorbance in control wells without active ingredients.

[4] = test system: Xanthomonas campestris pv. campestris; test: In vivo preventive test on Xanthomonas campestris pv. campestris (black rot on cabbage); details: Xanthomonas campestris, cabbage, evaluated 8 or 10 days after inoculation, read-out: efficacy; for pest or weed control at 31 ppm: 31 ppm of active ingredient; for pest or weed control at 125 ppm: 125 ppm of active ingredient
Description: as §1, §2
After 72 hours, the plants were contaminated by spraying the leaves with an aqueous bacteria suspension of Xanthomonas campestris pv. campestris. The contaminated cabbage plants were incubated for 8 or 10 days at 27° C. at 95% relative humidity.
The test was evaluated 8 or 10 days after the inoculation. 0% means an efficacy which corresponds to that of the control plants while an efficacy of 100% means that no disease was observed.
Compound CMP1 was tested in an in vivo preventive test on Xanthomonas campestris pv. campestris (black rot on cabbage) in the same conditions as described in Example F.

[5] = test system: salicylate responsive promoter sequence of the PR1 (pathogenesis-related protein I) gene (AT2G14610); test: Induction of defense gene expression in Arabidopsis thaliana (PR1 promoter-GFP reporter plants); assay type: in vivo; details: 72 h, 3rd day after spraying, mock treated leaves set as 1.00, read-out: relative fluorescence value; for fold induction at 75 ppm: 75 ppm of compound
Description: Arabidopsis thaliana reporter plants containing the coding sequence of a green fluorescent protein (GFP) linked to the salicylate responsive promoter sequence of the PR1 (pathogenesis-related protein I) gene (AT2G14610) were grown for five days and then sprayed with compounds. On the 3rd day after spraying, plant fluorescence was assessed with a MacroFluo instrument from Leica Microsystems (Wetzlar, Germany). Fluorescences were quantified with the Meta-Morph Microscopy Automation & Image Analysis Software (Molecular Devices, Sunnyvale, Calif., United States).
Background fluorescence in mock treated leaves was set as 1.00.

[6] = given in preparation examples, method not marked
[7] = method [a]: LC-UV, acidic range, 0.1% formic acid in water and acetonitrile as eluent

COC(=O)C1(NC(=O)c2sc(C#N)c(Br)c2C)CC1 [methyl 1-{[(4-bromo-5-cyano-3-methyl-2-thienyl)carbonyl]amino}cyclopropanecarboxylate]
chromatographic logP [1, 6]: 2.31

N#Cc1sc(C2=NC3(CC3)C(=O)O2)cc1Br [I.05]
LogP [1, 7]: 2.83^[a]

O=C1SC(c2sc(Br)c(Br)c2I)=NC12CC2 [I.14]
LogP [1, 7]: 5.61^[a]

CC1(C)N=C(c2sc(Cl)c(Br)c2Cl)OC1=O [I.21]
inhibition at 20 ppm [2]: ≤ 30%
chromatographic logP [1, 7]: 4.26
pest or weed control at 31 ppm (Uromyces appendiculatus): 90 to 100%
pest or weed control at 125 ppm (Uromyces appendiculatus): 90 to 100%
pest or weed control at 125 ppm (Peronospora parasitica): 90 to 100%
inhibition at 20 ppm [3]: ≤ 30%

O=C1SC(c2sc(Br)c(Br)c2F)=NC12CC2 [I.03, 5-(4,5-dibromo-3-fluoro-2-thienyl)-6-thia-4-azaspiro[2.4]hept-4-en-7-one]
inhibition at 20 ppm [2]: ≤ 30%
pest or weed control at 31 ppm [4]: 70 to 79%
pest or weed control at 125 ppm [4]: 70 to 79%
fold induction at 300 ppm [5]: > 2
chromatographic logP [1, 6]: 5.08
chromatographic logP [1, 7]: 5.08
inhibition at 20 ppm [3]: ≤ 30%

Cc1c(C2=NC3(CCC3)C(=O)O2)sc(Cl)c1Cl [I.19]
inhibition at 20 ppm [2]: ≤ 30%
chromatographic logP [1, 7]: 4.75
pest or weed control at 31 ppm (Uromyces appendiculatus): 90 to 100%
pest or weed control at 125 ppm (Uromyces appendiculatus): 90 to 100%
pest or weed control at 125 ppm (Peronospora parasitica): 90 to 100%
inhibition at 20 ppm [3]: ≤ 30%

Cc1c(C(=O)NC2(C(=O)O)CC2)sc(C#N)c1Br [1-{[(4-bromo-5-cyano-3-methyl-2-thienyl)carbonyl]amino}cyclopropanecarboxylic acid]
Log P [1, 6]: 1.84
chromatographic logP [1, 6]: 1.88

Cc1c(C2=NC3(CC3)C(=O)S2)sc(Cl)c1Cl [I.15]
LogP [1]: 5.53^[a]

CC1(C)N=C(c2sc(Cl)c(Cl)c2Br)OC1=O [I.23]
inhibition at 20 ppm [2]: ≤ 30%
chromatographic logP [1, 7]: 4.33
pest or weed control at 31 ppm (Uromyces appendiculatus): 70 to 79%
inhibition at 20 ppm [3]: ≤ 30%

Cc1c(C2=NC(C)(C)C(=O)O2)sc(Cl)c1Cl [I.24]
inhibition at 20 ppm [2]: ≤ 30%
chromatographic logP [1, 7]: 4.51
pest or weed control at 125 ppm (Uromyces appendiculatus): 90 to 100%
pest or weed control at 125 ppm (Peronospora parasitica): 80 to 89%
inhibition at 20 ppm [3]: ≤ 30%

O=C1OC(c2sc(Br)c(Br)c2Cl)=NC12CCC2 [I.17]
inhibition at 20 ppm [2]: ≤ 30%
fold induction at 75 ppm [5]: > 2
fold induction at 300 ppm [5]: > 2
chromatographic logP [1, 7]: 4.51
pest or weed control at 125 ppm (Uromyces appendiculatus): 90 to 100%
pest or weed control at 125 ppm (Peronospora parasitica): 90 to 100%
inhibition at 20 ppm [3]: ≤ 30%

O=C(O)c1ccccc1O [Salicylic acid, reference compound]
fold induction at 300 ppm [5]: 2.7

Cc1c(C(=O)O)sc(C#N)c1Br [4-bromo-5-cyano-3-methylthiophene-2-carboxylic acid]
chromatographic logP [1, 6]: 2.05

Cc1c(C2=NC3(CC3)C(=O)O2)sc(C#N)c1Cl [I.07]
LogP [1, 7]: 3.25^[a]

CC1(C)N=C(c2sc(Cl)c(Br)c2Br)OC1=O [I.18]
LogP [1, 7]: 4.32^[a]

O=C1SC(c2sc(Br)c(Br)c2Br)=NC12CC2 [I.04]
LogP [1, 7]: 5.61^[a]

Cc1c(C2=NC3(CC3)C(=O)S2)sc(Br)c1Br [I.02]
inhibition at 20 ppm [2]: ≤ 30%
pest or weed control at 125 ppm [4]: 80 to 89%
fold induction at 75 ppm [5]: > 2
fold induction at 300 ppm [5]: > 2
chromatographic logP [1, 7]: 5.65
pest or weed control at 500 ppm (Uromyces appendiculatus): 70 to 79%
inhibition at 20 ppm [3]: ≤ 30%

COC(=O)C1(NC(=S)c2sc(Br)c(Br)c2F)CC1 [methyl 1-{[(4,5-dibromo-3-fluoro-2-thienyl)carbonothioyl]amino}cyclopropanecarboxylate]
chromatographic logP [1, 6]: 3.91

Cc1c(C2=NC(C(C)C)C(=O)O2)sc(Br)c1Br (centres unmarked) [I.10]
LogP [1, 7]: 5.31^[a]

O=C1SC(c2sc(Cl)c(Cl)c2Cl)=NC12CC2 [I.01]
pest or weed control at 31 ppm [4]: 80 to 89%
fold induction at 300 ppm [5]: > 2
chromatographic logP [1, 7]: 5.61
pest or weed control at 500 ppm (Uromyces appendiculatus): 90 to 100%
pest or weed control at 125 ppm (Peronospora parasitica): 80 to 89%
inhibition at 20 ppm [3]: ≤ 30%

O=C(O)C1(NC(=S)c2sc(Br)c(Br)c2F)CC1 [1-{[(4,5-dibromo-3-fluoro-2-thienyl)carbonothioyl]amino}cyclopropanecarboxylic acid]
chromatographic logP [1, 6]: 2.95
